Literature values as cited in US20150366189A1, “DRY MELT COATING PROCESS AND FORMULATION FOR VOLATILE COMPOUNDS” (AGROFRISH INC., priority 2013, published 2015).

Conditions: enclosed space

CC1=CC1 [Experiment 1-MCP, 1-Methylcyclopropene]
concentration threshold above which 1-MCP is flammable: > 13,300 ppm
